According to patent publication US20190092720A1, “FUNCTIONALIZED BENZAMIDE DERIVATIVES AS ANTIVIRAL AGENTS AGAINST HBV INFECTION” (BARUCH S. BLUMBERG INSTITUTE, priority 2012, published 2019):
pEC50: −log10 of the molar value. Where two headings read alike, the source gives them in different places.

Experiments:
encapsidated pgRNA = assay: Encapsidated pgRNA by Northern blot in AML12HBV10 cells; assay type: cell-based, Hepatitis B virus (HBV); conditions: 2 days, FIG. 1 panel C
Protocol: (§1) FIG. 1. Antiviral mechanism of the compounds of the present invention. AML12HBV10 cells were left untreated (NT) or treated with the indicated concentrations of the compounds of the disclosure Compound 6 and Compound 19, respectively, for 2 days. Bay-4109 (3 µM) or AT-61 (25 µM) served as positive controls. (A) Intracellular viral RNA was determined by Northern blot hybridization. Ribosomal RNA served as a loading control. (B) The total amounts of nucleocapsids were determined by a particle gel assay. (C) Encapsidated pgRNA were extracted and measured by Northern blot. (D) Nucleocapsid-associated HBV DNA was quantified by alkaline-treatment of nucleocapsids on the membrane following the particle gel assay and hybridized with a HBV-specific riboprobe. (E) HBV DNA replication intermediates were extracted and determined by Southern blot hybridizations.
Determination of encapsidated pgRNA: AML12HBV10 cells were lysed by addition of 600 μl of lysis buffer (50 mM Tris-HCl [pH 7.5], 1 mM EDTA, 150 mM NaCl, 1% NP-40) into each well of 12-well plates. The nuclei were removed by centrifugation at 5,000 g for 10 minutes. One-half of the sample was mixed with 6 U of micrococcal nuclease (Pharmacia) and 15 μl of 100 mM CaCl2 and incubated for 15 minutes at 37° C. to digest free nucleic acids. The reaction was stopped with 6 μl of 0.5 M EDTA, and capsids were precipitated by adding 125 μl of 35% polyethylene glycol 8000 in 1.75 M NaCl to the reaction and incubating in ice for 30 minutes, followed by centrifugation at 6,000 g for 10 minutes at 4° C. Pellets were re-suspended in 50 μl of TNE buffer (10 mM Tris-HCl [pH 8], 100 mM NaCl, 1 mM EDTA). pgRNA was extracted by the addition of 1 ml of Trizol reagent. The encapsidated pgRNA were electrophoresed through a 2.2 M formaldehyde-1% agarose gel, transferred to a nylon membrane, and immobilized by UV cross-linking (Stratagene). Hybridization was performed with an alpha-^32P-UTP labeled riboprobe specific for plus strand of HBV genome.

HBV capsids = assay: Particle gel assay of nucleocapsids in AML12HBV10 cells; assay type: cell-based, Hepatitis B virus (HBV); conditions: 2 days, FIG. 1 panel B
Protocol: as §1
(§2) Procedures of viral capsids and nucleocapsid-associated DNA analysis: AML12HB10 cells were lysed by addition of 300 μl buffer containing 10 mM Tris-HCl (pH7.6), 100 mM NaCl, 1 mM EDTA and 0.1% NP-40 to each well of 12-well plate. Cell debries were removed by centrifugation at 5000 g for 10 minutes. Ten microliters of the clarified cell lysates were fractionated by electrophoresis through nondenaturing 1% agarose gels and transferred to a nitrocellulose filter by blotting with TNE buffer (10 mM Tris-HCl, pH7.6; 150 mM NaCl and 1 mM EDTA). HBV capsids were detected by probing the membrane with an antibody against HBV core protein (DAKO). […] To detect capsid associated HBV DNA, the membrane were treated with buffer containing 0.5N NaOH and 1.5 M NaCl for 5 minutes and followed by neutralization with buffer containing 1 M TRIS-HCl and 1.5M NaCl for 5 minutes. The viral DNA was detected by hybridization with a α-^32P-UTP (800 Ci/mmol, Perkin Elmer) labeled minus strand specific full-length HBV riboprobe (Xu et al.).

[1] = test system: capsid-associated HBV DNA; assay: Capsid-associated HBV DNA and DNA replication intermediates in AML12HBV10 cells; assay type: cell-based, Hepatitis B virus (HBV); conditions: 2 days, FIG. 1 panels D and E
Protocol: as §1, §2
To analyze the HBV DNA replication intermediates, cells were lysed by adding into each well of the 12-well plates 0.5 ml of lysis buffer containing 10 mM Tris-HCl (pH 8.0), 1 mM EDTA, 1% NP40 and 2% sucrose and incubating at 37° C. for 10 minutes. Cell debris and nuclei were removed by centrifugation and the supernatant was mixed with 130 μl of 35% polyethylene glycol (PEG) 8000 containing 1.5 M NaCl. After 1 hour incubation in ice, viral nucleocapsids were pelleted by centrifugation at 6,000×g for 5 minutes at 4° C., followed by 1 hour digestion at 37° C. in 400 μl of digestion buffer containing 0.5 mg/ml pronase (Calbiochem), 0.5% SDS, 150 mM NaCl, 25 mM Tris-HCl (pH 8.0) and 10 mM EDTA. The digestion mixture was extracted twice with phenol and DNA was precipitated with ethanol, dissolved in TE buffer (10 mM Tris-HCl, pH 8.0; 0.1 mM EDTA). […]

[2] = test system: HBV replication in AML12HBV10 cells; assay: Antiviral efficacy in AML12HBV10 cells (HBV DNA dot-blot hybridization); assay type: cell-based, Hepatitis B virus (HBV)
Protocol: The HBV replication inhibitors of the present invention are capable of treating and preventing diseases associated with HBV infection.
The antiviral efficacy of the compounds of the disclosure, as presented in Table 1, were determined in AML12HBV10 cells. AML12HBV10 is an immortalized murine hepatocyte (AML12)-derived stable cell line that supports robust HBV replication in a tetracycline inducible manner (Xu et al.). The cells were seeded into 96 well plates at a density of 2×10^4 cells per well and cultured in DMEM/F12 media with 10% fetal bovine serum in the absence of tetracycline to allow pgRNA transcription and HBV DNA replication. One day after seeding, cells were left untreated or treated with a serial dilution of testing compounds, ranging from 50 μM to 0.39 μM, for 48 hours. Cells were then lysed by adding into each well of 100 μl lysis buffer containing 10 mM Tris-HCl (pH 7.6), 1 mM EDTA, 100 mM NaCl and 1% NP-40 and incubated at 37° C. for 30 minutes. Half amount (50 μl) of cell lysate from each well was combined with equal volume of denaturing solution containing 0.5N NaOH and 1.5M NaCl. After 5 minute incubation, 100 µl of neutralization solution (1M Tris-HCl, pH 7.4, 1.5M NaCl) was added into each well. The denatured cell lysates (totally 200 μl) were applied onto Nylon membrane using 96-well dot-blot manifold (Biorad). HBV DNA in the cell lysates were determined by dot-blot hybridization with alpha-^32P-UTP-labelled riboprobe specific for HBV minus strand DNA. The antiviral efficacy of a compound of the disclosure was expressed as the concentration that reduces the amount of HBV DNA by 50% (EC50).

HBV mRNA = assay: Intracellular viral RNA by Northern blot in AML12HBV10 cells; assay type: cell-based, Hepatitis B virus (HBV); conditions: 2 days, FIG. 1 panel A
Protocol: as §1
Procedure for analysis of HBV mRNA: Upon the completion of treatment, total cellular RNA was extracted with TRIzol reagents (Invitrogen). Five micrograms of total RNA was resolved in 1.5% agarose gel containing 2.2 M formadelhyde and transferred onto Hybond-XL membrane in 20×SSC buffer. The amounts of HBV mRNA were determined by Northern blot hybridization with an alpha-^32P-UTP labeled riboprobe specific for plus strand of HBV genome.

[3] = Cytotoxicity in AML12HBV10 cells (MTT assay); assay type: cell-based, murine; conditions: mouse, concentration that reduces viability by 50%, serial dilution 50 μM to 0.39 μM
Protocol: (§3) Determination of cytotoxicity of compounds of the disclosure in AML12HBV10 cells: To determine the cytotoxicity of the compounds, AML12HBV10 cells were seeded into 96-well plates at a density of 2×10^4 cells per well and cultured in DMEM/F12 media with 10% fetal bovine serum in the absence of tetracycline to allow pgRNA transcription and HBV DNA replication. One day after seeding, cells were left untreated or treated with a serial dilution of testing compounds, ranging from 50 μM to 0.39 μM, for 48 hours. The cell viability was measured by a MTT assay, following procedure provided by the manufacturer (Promega). The cytotoxicity of a compound was expressed as the concentration of compound that reduces the viability of the cells by 50% (CC50).

AML12HBV10 cells = assay: Cytotoxicity in AML12HBV10 cells (MTT assay); assay type: cell-based, murine; conditions: concentration that reduces viability by 50%, 48 hours, serial dilution 50 μM to 0.39 μM
Protocol: as §3

[4] = test system: HBV replication in HepDES19 cells; assay: Antiviral activity in HepDES19 cells (core-associated HBV DNA, Southern blot); assay type: cell-based, Hepatitis B virus (HBV); conditions: concentration that reduces core-associated HBV DNA by 50%; 6 days; serial dilution 10 μM to 0.018 μM
Source text: Determination of antiviral activity of compounds of the disclosure, as presented in Table 1, in human hepatoma-derived cell lines: To further confirm the antiviral activity of the compounds of the disclosure against HBV in human hepatocyte-derived cells, HepDES19 cells, a human hepatoma cell line supporting HBV replication in a tetracycline inducible manner (Guo et al., 2007), seeded into 12-well plates at a density of 5×10^5 cells per well and cultured in DMEM/F12 media with 10% fetal bovine serum and 1 μg/ml tetracycline. Two days after seeding, the cells were mock-treated or treated with a serial dilution of compounds of the disclosure, ranging from 10 μM to 0.018 μM, for 6 days in the absence of tetracycline. Upon the completion of treatment, cells were lysed by adding into each well of the 12-well plates 0.5 ml of lysis buffer containing 10 mM Tris-HCl (pH 8.0), 1 mM EDTA, 1% NP40 and 2% sucrose and incubating at 37° C. for 10 minutes. Cell debris and nuclei were removed by centrifugation and the supernatant was mixed with 130 μl of 35% polyethylene glycol (PEG) 8000 containing 1.5 M NaCl. After 1 hour incubation in ice, viral nucleocapsids were pelleted by centrifugation at 6,000×g for 5 min at 4° C., followed by 1 hour digestion at 37° C. in 400 μl of digestion buffer containing 0.5 mg/ml pronase (Calbiochem), 0.5% SDS, 150 mM NaCl, 25 mM Tris-HCl (pH 8.0) and 10 mM EDTA. The digestion mixture was extracted twice with phenol and DNA was precipitated with ethanol, dissolved in TE buffer (10 mM Tris-HCl, pH 8.0; 0.1 mM EDTA). One half of the DNA sample from each well was resolved by electrophoresis into a 1.5% agarose gel. The gel was then subjected to denaturation in a solution containing 0.5 M NaOH and 1.5 M NaCl, followed by neutralization in a buffer containing 1 M Tris-HCl (pH7.4) and 1.5 M NaCl. DNA was then blotted onto Hybond-XL membrane (GE Health care) in 20×SSC buffer. The amounts of cytoplasmic HBV core-associated HBV DNA were determined by Southern blot hybridization and the antiviral efficacy of a compound was expressed as its concentration that reduce the amount of HBV DNA by 50% (EC50) or 90% (EC90).

Compound | level of encapsidated pgRNA (encapsidated pgRNA) | capsid formation (HBV capsids) | capsid-associated HBV DNA / DNA synthesis [1] | pEC50 ([2]; Hepatitis B virus, AML12HBV10, 48 h, read-out: AML12HBV10 EC50, concentration that reduces the amount of HBV DNA by 50%, serial dilution 50 μM to 0.39 μM) | amount of viral mRNA (HBV mRNA) | CC50 at 48 h [3] | pEC50 ([2]; read-out: AML12HBV10 EC50, concentration that reduces the amount of HBV DNA by 50%, 48 hours, serial dilution 50 μM to 0.39 μM) | CC50 (AML12HBV10 cells) | pEC50 [4]
O=C(N/C(C(=O)N1CCCCC1)=C(/Cl)c1ccccc1)c1ccccc1 [AT-61, reference compound] | dose-dependently reduced | did not affect | dose-dependently reduced |  |  |  |  |  | 
COC(=O)C1=C(C)NC(c2ncc(F)cc2F)=N[C@H]1c1ccc(F)cc1Cl [Bay41-4109, reference compound] | completely abolished | completely abolished | completely abolished |  |  |  |  |  | 
O=C(Nc1cccc(Cl)c1)c1cccc2c1OCCO2 [Entry 19] | dose-dependently reduced | did not significantly affect | reduced encapsidated pgRNA and capsid-associated HBV DNA in a dose-dependent manner | > 6.40 | did not affect | > 50 µM |  |  | 
O=C(Nc1ccccc1)c1scc2c1OCCO2 [Entry 10] |  |  |  |  |  |  | 5.35 | > 50 µM | 5.07
